The source of these data is ChEMBL document CHEMBL1140665, “Eco-friendly synthesis and study of new plant growth promoters: 3,3'-Diindolylmethane and its derivatives” (2007).

What all share (assay type): functional
In experiment [1] the test system is Oryza sativa. Description: Growth promoting activity in Oryza sativa assessed as shoot length at 1000 ppm on day 5.
Experiment [2] deals with Oryza sativa. Kind of experiment: Growth promoting activity in Oryza sativa assessed as root length at 500 ppm on day 5.
Experiment [3] concerns Oryza sativa. Kind of experiment: Growth promoting activity in Oryza sativa assessed as shoot length at 125 ppm on day 5.
Experiment [4] relates to Oryza sativa. Description: Growth promoting activity in Oryza sativa assessed as shoot length at 62.5 ppm on day 5.
Experiment [5] concerns Oryza sativa. Kind of experiment: Growth promoting activity in Oryza sativa assessed as root length at 125 ppm on day 5.
The test system of experiment [6] is Oryza sativa. Description: Growth promoting activity in Oryza sativa assessed as shoot length at 31.25 ppm on day 5.
The subject of experiment [7] is Oryza sativa. Description: Growth promoting activity in Oryza sativa assessed as root length at 250 ppm on day 5.
In experiment [8] the test system is Oryza sativa. Kind of experiment: Growth promoting activity in Oryza sativa assessed as shoot length at 500 ppm on day 5.
The test system of experiment [9] is Oryza sativa. Kind of experiment: Growth promoting activity in Oryza sativa assessed as root length at 1000 ppm on day 5.
Experiment [10] has as its system Oryza sativa. Description: Growth promoting activity in Oryza sativa assessed as root length at 62.5 ppm on day 5.
Experiment [11] has as its system Oryza sativa. Kind of experiment: Growth promoting activity in Oryza sativa assessed as shoot length at 250 ppm on day 5.
Experiment [12] has as its system Oryza sativa. Kind of experiment: Growth promoting activity in Oryza sativa assessed as root length at 31.25 ppm on day 5.

Consider `Cn1cc(Cc2cn(C)c3ccccc23)c2ccccc21`, for which the Activity stood at 6.1 mm in the experiment with Oryza sativa [1]; 19.7 mm in the experiment with Oryza sativa [2]; 12.2 mm in the experiment with Oryza sativa [3]; 10.7 mm with Oryza sativa [4]; 25.4 mm in the experiment with Oryza sativa [5]; 9.2 mm in the experiment on Oryza sativa [6]. The Activity in the experiment on Oryza sativa [7] is 22.52 mm; in the experiment on Oryza sativa [8], 8.37 mm; with Oryza sativa [9], 16.72 mm; in the experiment with Oryza sativa [10], 23.5 mm; in the experiment on Oryza sativa [11] it was 10.3 mm; in the experiment with Oryza sativa [12] it was 20.4 mm.
`COc1ccc2[nH]cc(Cc3c[nH]c4ccc(OC)cc34)c2c1`: the Activity in the experiment with Oryza sativa [1] is 11.6 mm; in the experiment with Oryza sativa [2], 26.5 mm; with Oryza sativa [3] it was 17.6 mm; with Oryza sativa [4], 15.3 mm; in the experiment on Oryza sativa [5] it was 33.8 mm; in the experiment with Oryza sativa [6], 13.4 mm. Moreover, the Activity in the experiment on Oryza sativa [7] is 29.42 mm; in the experiment on Oryza sativa [8], 13.4 mm; with Oryza sativa [9], 23.62 mm; in the experiment with Oryza sativa [10], 30.6 mm; with Oryza sativa [11] it was 15.23 mm; in the experiment with Oryza sativa [12], 28.4 mm.
Take `Brc1ccc2[nH]cc(Cc3c[nH]c4ccc(Br)cc34)c2c1`: the Activity is 6.7 mm in the experiment with Oryza sativa [1]; 16.6 mm in the experiment on Oryza sativa [2]; 12.7 mm with Oryza sativa [3]; 11 mm with Oryza sativa [4]; 23.2 mm with Oryza sativa [5]; 9.5 mm in the experiment with Oryza sativa [6]. The Activity stood at 19.72 mm in the experiment with Oryza sativa [7]; 8.53 mm in the experiment on Oryza sativa [8]; 13.8 mm in the experiment with Oryza sativa [9]; 21.1 mm in the experiment on Oryza sativa [10]; 10.7 mm in the experiment with Oryza sativa [11]; 18.6 mm in the experiment with Oryza sativa [12].
Take `Cn1cc(Cc2cn(C)c3ccc(Br)cc23)c2cc(Br)ccc21`: the Activity in the experiment on Oryza sativa [1] turned out to be 5.92 mm; in the experiment with Oryza sativa [2], 15.9 mm; with Oryza sativa [3], 11.4 mm; in the experiment on Oryza sativa [4], 10.1 mm; with Oryza sativa [5], 22.6 mm; in the experiment on Oryza sativa [6], 9.05 mm. For the same molecule, the Activity in the experiment on Oryza sativa [7] came to 18.56 mm; in the experiment on Oryza sativa [8] it was 8.12 mm; in the experiment on Oryza sativa [9] it was 12.9 mm; with Oryza sativa [10], 19.6 mm; in the experiment on Oryza sativa [11], 9.72 mm; in the experiment with Oryza sativa [12] it was 16.8 mm.
For `Cc1c(Cc2c(C)n(C)c3ccccc23)c2ccccc2n1C`, the Activity in the experiment with Oryza sativa [1] was determined as 12 mm; in the experiment on Oryza sativa [2], 33.4 mm; in the experiment on Oryza sativa [3], 18.7 mm; in the experiment with Oryza sativa [4], 16.4 mm; with Oryza sativa [5], 39.4 mm; with Oryza sativa [6], 14.7 mm. Moreover, the Activity in the experiment on Oryza sativa [7] was found to be 35.42 mm; in the experiment on Oryza sativa [8], 14.7 mm; in the experiment on Oryza sativa [9], 30.72 mm; in the experiment on Oryza sativa [10], 36.4 mm; with Oryza sativa [11], 16.8 mm; with Oryza sativa [12], 34.2 mm.
Turning to `Cn1cc(Cc2cn(C)c3ccc([N+](=O)[O-])cc23)c2cc([N+](=O)[O-])ccc21`, the Activity in the experiment on Oryza sativa [1] was found to be 5.76 mm; in the experiment on Oryza sativa [2], 15.2 mm; in the experiment with Oryza sativa [3], 11 mm; in the experiment on Oryza sativa [4], 9.96 mm; in the experiment with Oryza sativa [5], 21.4 mm; in the experiment on Oryza sativa [6] it was 8.87 mm. Further, the Activity came out at 18.16 mm in the experiment with Oryza sativa [7]; 7.82 mm in the experiment with Oryza sativa [8]; 12.12 mm with Oryza sativa [9]; 18.9 mm with Oryza sativa [10]; 9.56 mm with Oryza sativa [11]; 16.2 mm in the experiment on Oryza sativa [12].
Consider `COc1ccc2c(c1)c(Cc1cn(C)c3ccc(OC)cc13)cn2C`, for which the Activity with Oryza sativa [1] worked out at 7.8 mm; with Oryza sativa [2], 23.3 mm; with Oryza sativa [3], 13.6 mm; in the experiment on Oryza sativa [4], 11.5 mm; in the experiment with Oryza sativa [5], 30.4 mm; in the experiment with Oryza sativa [6], 9.78 mm. Further, the Activity is 26.72 mm with Oryza sativa [7]; 9.66 mm with Oryza sativa [8]; 20.78 mm in the experiment on Oryza sativa [9]; 28.2 mm with Oryza sativa [10]; 11.42 mm in the experiment on Oryza sativa [11]; 25.7 mm in the experiment with Oryza sativa [12].
Consider `c1ccc(-c2[nH]c3ccccc3c2Cc2c(-c3ccccc3)[nH]c3ccccc23)cc1`, for which the Activity with Oryza sativa [1] is 12.9 mm; in the experiment on Oryza sativa [2], 32.6 mm; in the experiment on Oryza sativa [3], 19.5 mm; in the experiment on Oryza sativa [4] it was 17.4 mm; in the experiment on Oryza sativa [5], 38.7 mm; in the experiment on Oryza sativa [6], 15.2 mm. In addition, the Activity in the experiment with Oryza sativa [7] is 34.2 mm; in the experiment with Oryza sativa [8] it was 15.5 mm; in the experiment with Oryza sativa [9] it was 29.76 mm; with Oryza sativa [10], 35.9 mm; in the experiment on Oryza sativa [11], 17.32 mm; with Oryza sativa [12], 33.6 mm.
Consider `Cc1[nH]c2ccccc2c1Cc1c(C)[nH]c2ccccc12`, for which the Activity is 13.3 mm in the experiment on Oryza sativa [1]; 38.5 mm with Oryza sativa [2]; 21.1 mm in the experiment with Oryza sativa [3]; 19.6 mm in the experiment with Oryza sativa [4]; 46.5 mm with Oryza sativa [5]; 16.4 mm with Oryza sativa [6]. The Activity in the experiment on Oryza sativa [7] is 40.66 mm; in the experiment on Oryza sativa [8] it was 16.3 mm; in the experiment with Oryza sativa [9], 35.12 mm; with Oryza sativa [10], 42.8 mm; in the experiment on Oryza sativa [11], 18.57 mm; in the experiment with Oryza sativa [12], 40.2 mm.
For `Cn1c(-c2ccccc2)c(Cc2c(-c3ccccc3)n(C)c3ccccc23)c2ccccc21`, the Activity turned out to be 10.8 mm with Oryza sativa [1]; 28.2 mm in the experiment on Oryza sativa [2]; 17.2 mm in the experiment with Oryza sativa [3]; 15.4 mm in the experiment with Oryza sativa [4]; 34.5 mm with Oryza sativa [5]; 13.8 mm in the experiment on Oryza sativa [6]. In addition, the Activity was determined as 30.27 mm in the experiment on Oryza sativa [7]; 13.6 mm in the experiment with Oryza sativa [8]; 25.6 mm with Oryza sativa [9]; 31.2 mm in the experiment on Oryza sativa [10]; 15.01 mm in the experiment with Oryza sativa [11]; 29.6 mm with Oryza sativa [12].
With `c1ccc2c(Cc3c[nH]c4ccccc34)c[nH]c2c1` [ARUNDINE], the Activity turned out to be 8.45 mm in the experiment on Oryza sativa [1]; 22.4 mm with Oryza sativa [2]; 15.7 mm in the experiment with Oryza sativa [3]; 13.4 mm in the experiment with Oryza sativa [4]; 29.5 mm with Oryza sativa [5]; 11.2 mm with Oryza sativa [6]. The Activity was 10.9 mm with Oryza sativa [8], 26.3 mm with Oryza sativa [10] and 24.6 mm in the experiment with Oryza sativa [12].
With `O=C(O)Cc1c[nH]c2ccccc12` [INDOLE-3-ACETIC ACID], the Activity was found to be 5.28 mm with Oryza sativa [1]; 14.4 mm in the experiment on Oryza sativa [2]; 10.6 mm in the experiment with Oryza sativa [3]; 9.81 mm with Oryza sativa [4]; 20.3 mm in the experiment with Oryza sativa [5]; 8.72 mm with Oryza sativa [6]. For the same molecule, the Activity came to 7.66 mm in the experiment with Oryza sativa [8], 18.7 mm in the experiment on Oryza sativa [10] and 15.6 mm in the experiment with Oryza sativa [12].
